Results taken from ChEMBL document CHEMBL1201862, “PubChem BioAssay data set” (2004).
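Five concentrations, 48 hours, 96-well plates. Here, GI50 denotes the concentration required for 50% inhibition of growth.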 The source made the active and inactive calls. No stated cut-off is given here; in the data, active = GI50 up to about 1.1 µM and inactive = higher.

Assays:
Test in all cases: DTP human tumour cell line panel, 48 h
NCI/ADR-RES = system: NCI/ADR-RES
SW-620 = system: SW-620
SR = system: SR
HCT-15 = system: HCT-15
NCI-H226 = system: NCI-H226
786-0 = system: 786-0
SN12C = system: SN12C
CCRF-CEM = system: CCRF-CEM
SK-OV-3 = system: SK-OV-3
HT-29 = system: HT-29
EKVX = system: EKVX
M14 = system: M14
CAKI-1 = system: CAKI-1
IGROV-1 = system: IGROV-1
A498 = system: A498
Hs-578T = system: Hs-578T
NCI-H522 = system: NCI-H522
SF-539 = system: SF-539
T47D = system: T47D
SNB-75 = system: SNB-75

| SMILES | GI50 (NCI/ADR-RES) | GI50 (SW-620) | GI50 (SR) | GI50 (HCT-15) | GI50 (NCI-H226) | GI50 (786-0) | GI50 (SN12C) | GI50 (CCRF-CEM) | GI50 (SK-OV-3) | GI50 (HT-29) | GI50 (EKVX) | GI50 (M14) | GI50 (CAKI-1) | GI50 (IGROV-1) | GI50 (A498) | GI50 (Hs-578T) | GI50 (NCI-H522) | GI50 (SF-539) | GI50 (T47D) | GI50 (SNB-75) |
| --- | --- | --- | --- | --- | --- | --- | --- | --- | --- | --- | --- | --- | --- | --- | --- | --- | --- | --- | --- | --- |
| C/C=C/[C@H]1O[C@@](OC)([C@@H](C)[C@H](O)[C@H](C)[C@H]2OC(=O)/C(OC)=C/C(C)=C/[C@@H](C)[C@@H](O)[C@@H](C)[C@@H](O)[C@H](C)C/C(C)=C/C=C/[C@@H]2OC)CC(OC2CC(O)C(OC(N)=O)C(C)O2)[C@@H]1C (some centres undefined) | 0.0953 µM (active) | < 0.01 µM (active) | < 0.01 µM (active) | < 0.01 µM | < 0.01 µM (active) | < 0.01 µM (active) | 0.589 µM (active) | < 0.01 µM (active) | 7.48 µM (inactive) | < 0.01 µM (active) | < 0.01 µM (active) | < 0.01 µM (active) | < 0.01 µM (active) | < 0.01 µM (active) | 8.99 µM (inactive) | 2.08 µM (inactive) | < 0.01 µM (active) | < 0.01 µM (active) | < 0.01 µM (active) | – |
| COc1ccc(-n2nnc(C(N)=O)c2O)cc1 | > 100 µM (inactive) | > 100 µM (inactive) | > 100 µM (inactive) | > 100 µM | > 100 µM (inactive) | > 100 µM (inactive) | > 100 µM (inactive) | > 100 µM (inactive) | > 100 µM (inactive) | > 100 µM (inactive) | > 100 µM (inactive) | > 100 µM (inactive) | > 100 µM (inactive) | > 100 µM (inactive) | > 100 µM (inactive) | > 100 µM (inactive) | > 100 µM (inactive) | – | > 100 µM (inactive) | > 100 µM (inactive) |
| O=[N+]([O-])c1ccc(/N=N/N2CCCC2)cc1 | > 100 µM (inactive) | > 100 µM (inactive) | 79.4 µM (inactive) | > 100 µM | > 100 µM (inactive) | > 100 µM (inactive) | > 100 µM (inactive) | > 100 µM (inactive) | > 100 µM (inactive) | – | > 100 µM (inactive) | > 100 µM (inactive) | > 100 µM (inactive) | > 100 µM (inactive) | > 100 µM (inactive) | > 100 µM (inactive) | > 100 µM (inactive) | > 100 µM (inactive) | > 100 µM (inactive) | > 100 µM (inactive) |
| CC(=O)OCCn1cnc2c(NCC=C(C)C)ncnc21 | > 100 µM (inactive) | > 100 µM (inactive) | > 100 µM (inactive) | – | > 100 µM (inactive) | > 100 µM (inactive) | > 100 µM (inactive) | > 100 µM (inactive) | > 100 µM (inactive) | > 100 µM (inactive) | > 100 µM (inactive) | > 100 µM (inactive) | > 100 µM (inactive) | > 100 µM (inactive) | > 100 µM (inactive) | > 100 µM (inactive) | > 100 µM (inactive) | > 100 µM (inactive) | > 100 µM (inactive) | > 100 µM (inactive) |
| C=C1[C@H](OC(=O)C(C)C)[C@]23CC4(O)[C@@H]5[C@@]6(C)CCC[C@]57C([C@@H]2C[C@@]1(O)[C@H](O)[C@@H]73)N4C6 | > 100 µM (inactive) | > 100 µM (inactive) | > 100 µM (inactive) | > 100 µM | > 100 µM (inactive) | > 100 µM (inactive) | – | > 100 µM (inactive) | 98.6 µM (inactive) | > 100 µM (inactive) | > 100 µM (inactive) | > 100 µM (inactive) | > 100 µM (inactive) | > 100 µM (inactive) | > 100 µM (inactive) | > 100 µM (inactive) | > 100 µM (inactive) | > 100 µM (inactive) | > 100 µM (inactive) | > 100 µM (inactive) |
| CN(C)Cc1cc(/N=N/c2ccccc2Cl)cc(CN(C)C)c1O | 63.7 µM (inactive) | 90.2 µM (inactive) | 45.2 µM (inactive) | > 100 µM | > 100 µM (inactive) | 76.9 µM (inactive) | > 100 µM (inactive) | 25.6 µM (inactive) | – | 42.9 µM (inactive) | > 100 µM (inactive) | 29.4 µM (inactive) | > 100 µM (inactive) | 58.1 µM (inactive) | 33.7 µM (inactive) | 28.1 µM (inactive) | 12.3 µM (inactive) | > 100 µM (inactive) | > 100 µM (inactive) | 56.4 µM (inactive) |
| O=C(CC(O)(C(F)(F)F)C(F)(F)F)C(c1ccccc1)C(O)(C(F)(F)F)C(F)(F)F (centres undefined) | 8.87 µM (inactive) | 14.4 µM (inactive) | 9.31 µM (inactive) | 9.53 µM | 42.8 µM (inactive) | 31.3 µM (inactive) | – | 5.56 µM (inactive) | 5.92 µM (inactive) | 15.2 µM (inactive) | 18.4 µM (inactive) | 41.2 µM (inactive) | 10.5 µM (inactive) | 5.77 µM (inactive) | 13.9 µM (inactive) | 4.15 µM (inactive) | 38.3 µM (inactive) | 17.1 µM (inactive) | 13.1 µM (inactive) | 1.93 µM (inactive) |
| CCOC(=O)c1c(N2CCCC2)[nH]c(=O)c(C(c2c(O)c(C(=O)OCC)c(N3CCCC3)[nH]c2=O)C(C)C)c1O | > 100 µM (inactive) | > 100 µM (inactive) | 37.5 µM (inactive) | > 100 µM | > 100 µM (inactive) | 61.8 µM (inactive) | > 100 µM (inactive) | > 100 µM (inactive) | > 100 µM (inactive) | > 100 µM (inactive) | > 100 µM (inactive) | > 100 µM (inactive) | 48 µM (inactive) | – | > 100 µM (inactive) | 42.1 µM (inactive) | 43.5 µM (inactive) | > 100 µM (inactive) | > 100 µM (inactive) | 25.3 µM (inactive) |
| Nc1nc(Cl)c(N)c(NCC2(CO)CCCC2)n1 | > 100 µM (inactive) | > 100 µM (inactive) | > 100 µM (inactive) | > 100 µM | > 100 µM (inactive) | > 100 µM (inactive) | > 100 µM (inactive) | > 100 µM (inactive) | 10.4 µM (inactive) | > 100 µM (inactive) | 20.7 µM (inactive) | – | > 100 µM (inactive) | 84.7 µM (inactive) | 44.7 µM (inactive) | > 100 µM (inactive) | > 100 µM (inactive) | > 100 µM (inactive) | 0.826 µM (active) | > 100 µM (inactive) |
| O=C(/C=C/c1ccc(O)c(O)c1)OCCOC(=O)/C=C/c1ccc(O)c(O)c1 | 39.8 µM (inactive) | 38.1 µM (inactive) | 22.6 µM (inactive) | 35.1 µM | 30.1 µM (inactive) | 42.3 µM (inactive) | 25.9 µM (inactive) | 33.1 µM (inactive) | 24.2 µM (inactive) | 21.4 µM (inactive) | 26.7 µM (inactive) | 14.7 µM (inactive) | 39.4 µM (inactive) | 35 µM (inactive) | 39.5 µM (inactive) | 39.4 µM (inactive) | 20 µM (inactive) | 22.4 µM (inactive) | 24.7 µM (inactive) | – |
| O=S(=O)(c1ccccc1)n1c2ccc(Br)cc2c2nc3ccccc3nc21 | > 100 µM (inactive) | > 100 µM (inactive) | > 100 µM (inactive) | > 100 µM | 47.9 µM (inactive) | > 100 µM (inactive) | > 100 µM (inactive) | > 100 µM (inactive) | – | > 100 µM (inactive) | – | > 100 µM (inactive) | > 100 µM (inactive) | > 100 µM (inactive) | > 100 µM (inactive) | > 100 µM (inactive) | > 100 µM (inactive) | – | > 100 µM (inactive) | > 100 µM (inactive) |
| N#CC1=C(N2CCCC2)NC(=O)CC1=O | > 100 µM (inactive) | > 100 µM (inactive) | > 100 µM (inactive) | > 100 µM | > 100 µM (inactive) | > 100 µM (inactive) | > 100 µM (inactive) | > 100 µM (inactive) | > 100 µM (inactive) | > 100 µM (inactive) | > 100 µM (inactive) | > 100 µM (inactive) | > 100 µM (inactive) | > 100 µM (inactive) | > 100 µM (inactive) | > 100 µM (inactive) | > 100 µM (inactive) | > 100 µM (inactive) | 74 µM (inactive) | – |
| COc1ccc(N/N=C2\CCOc3ccc(C)cc3C2=O)cc1 | 9.4 µM (inactive) | 20 µM (inactive) | 15.6 µM (inactive) | 5.52 µM | 27.4 µM (inactive) | 17.4 µM (inactive) | 40.6 µM (inactive) | 16.3 µM (inactive) | 18.2 µM (inactive) | 7.8 µM (inactive) | 21.3 µM (inactive) | 26.9 µM (inactive) | 27.9 µM (inactive) | 17.7 µM (inactive) | 59.8 µM (inactive) | 25.1 µM (inactive) | 24.7 µM (inactive) | 40.6 µM (inactive) | 2.14 µM (inactive) | – |
| CC(C)[C@H]1NC(=O)[C@H]2N=C(S[C@H]2C)[C@@H]2CCCN2C(=O)[C@H](Cc2ccccc2)NC(=O)[C@@H]2CSC(=N2)[C@@H](Cc2ccccc2)NC(=O)[C@@H]2CSC1=N2 | 19.7 µM (inactive) | 18.1 µM (inactive) | 5.65 µM (inactive) | 25.3 µM | 21 µM (inactive) | 33.7 µM (inactive) | 40.2 µM (inactive) | 12.3 µM (inactive) | 35.5 µM (inactive) | 25.8 µM (inactive) | 27.5 µM (inactive) | 25.7 µM (inactive) | > 50 µM (inactive) | 29 µM (inactive) | 19.2 µM (inactive) | 15.1 µM (inactive) | 12.2 µM (inactive) | 22.3 µM (inactive) | 35 µM (inactive) | – |
